Tests used:
[1] = target: T1, GPR34-expressed CHO cells (Homo sapiens, UniProt Q9UPC5); assay: Intracellular cAMP production inhibitory activity using GPR34-expressed CHO cells (forskolin-stimulated, cAMP EIA); type: cell-based; conditions: 2 μM forskolin, FIG. 1
T1 construct: expressed in transfected cells
Description: The GPR34-expressed CHO cells prepared in (1-2) described above and selected in (1-2) described above were plated on a 24-well plate in 6×10^4 cells/well followed by incubation for 48 hours. The cells were washed with αMEM medium (pH 7.5) containing 0.2 mM 3-isobutyl-methylxanthine, 0.05% BSA and 20 mM HEPES (hereinafter αMEM medium (pH 7.5) containing 0.2 mM 3-isobutyl-methylxanthine, 0.05% BSA and 20 mM HEPES is referred to as the reaction buffer). Thereafter, 0.5 mL of the reaction buffer was added and the mixture was kept warm for 30 minutes in an incubator. The reaction buffer was removed and 0.25 mL of fresh reaction buffer was replenished to the cells. Then, 0.25 mL of the reaction buffer containing a sample and 2 μM forskolin was added to the cells, followed by reacting at 37° C. for 30 minutes. […] The cAMP level in the extract was quantified using the same kit. Based on this measurement data, the cAMP production inhibitory activity was calculated based on the equation shown below and expressed in terms of percentage to the control group. The activity in the group added with sample was calculated using each control value set on the same plate. % of control=(X−C)/(T−C)×100 wherein • X: cAMP level in the group added with sample • T: mean value of the cAMP levels in 3 wells of the groups without sample addition and with forskolin stimulation […]

[2] = tested on: other receptor expression cells; assay: cAMP production inhibitory activity on other receptor expression cells (specificity check); type: cell-based; conditions: receptor-specific
Description: The amino acid sequence of GPR34 is known to have low homology to the amino acid sequence of the platelet-activating factor receptor or the uridine diphosphate glycoside. Thus, various compounds including platelet-activating factor and uridine diphosphate glycoside, which are ligands to the receptors showing homology to GPR34, were administered to the GPR34-expressed CHO cells to examine the cAMP production inhibitory activity of these compounds on the GPR34-expressed CHO cells by the method shown in (1-4) described above.
The effect was not noted on the other receptor expression cells but was receptor-specific.

T1 sequence (Q9UPC5 whole entry): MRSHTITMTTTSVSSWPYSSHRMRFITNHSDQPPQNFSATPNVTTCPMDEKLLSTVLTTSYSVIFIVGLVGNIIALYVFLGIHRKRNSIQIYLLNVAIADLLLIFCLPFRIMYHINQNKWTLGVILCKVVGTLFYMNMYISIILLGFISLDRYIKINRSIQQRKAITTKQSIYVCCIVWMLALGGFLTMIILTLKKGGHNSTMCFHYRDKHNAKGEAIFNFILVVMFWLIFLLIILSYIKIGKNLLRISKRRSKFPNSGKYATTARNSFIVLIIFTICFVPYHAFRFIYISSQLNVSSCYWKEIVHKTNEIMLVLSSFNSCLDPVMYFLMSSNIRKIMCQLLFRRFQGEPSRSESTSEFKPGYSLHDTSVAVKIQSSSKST

cAMP production inhibitory activity ([1]; in a higher concentration)	Substance	cAMP production inhibitory activity ([1]; 37° C. 30 minutes)	cAMP production inhibitory effect on other receptor expression cells [2]
	lysophosphatidylserine	marked activities	not noted
marked activities	phosphatidylserine		not noted

From US7202040B2, “Method for screening compounds which change the binding properties of a protein with a ligand” (Takeda Pharmaceutical Company Limited, priority 2001, dated 2007)
